How the values were obtained:
BDNF NRSE = experiment: ChIP on hippocampi of rats administered 2-DG or saline, BDNF NRSE; assay type: in vivo, rat
Source text: FIG. 10D is a graph showing the results of CHiP assays of ˜20 kB surrounding the NRSE element in the BDNF gene. The data is plotted as the quantity of DNA specifically precipitated (pg).
FIG. 10E is a graph showing the results of CHiP assays wherein chromatin precipitated with anti-H3K9-dimethyl or sham antibody and primers flanking the BDNF NRSE. The data is plotted as the quantity of DNA specifically precipitated (pg).
FIG. 10F is a graph showing the results of CHiP assays wherein chromatin was precipitated with anti-NRSF or sham antibody and primers flanking the BDNF or actin promoter. The data is plotted as the quantity of DNA specifically precipitated (pg).
(§1) FIG. 10I is a graph of CHIP assays performed on hippocampi from rats administered 2-DG or saline for 2 weeks and using a cocktail of anti-CtBP1 and anti-CtBP2 antibody or sham antibody and primers flanking the BDNF NRSE or actin promoter. Data is plotted as quantity of DNA specifically precipitated in picograms.
To determine whether 2-DG mediated suppression of BDNF levels was associated with a decreased level of histone H3 Lysine^9 acetylation, hippocampii from 2-DG treated or control rats were crosslinked with 1% formaldehyde and subjected to chromatin immunoprecipitation assays (ChIPs), performed as in Roopra et al.(2004, Mol Cell 14: 727-38) with an antibody specific to acetylated H3-K9. The graphs shown in FIGS. 10A through 10C show the results of experiments in which the amount (in ng) of DNA associated with nucleosomes comprising modified or unmodified H3 histone proteins was detected for an endogenous, NRSE/NRSF-regulated gene (CHRM4) in JTC-19 cells grown in the presence of 2-DG or glucose. […] However, the amount of CtBP recruited to CHRM4, the NRSF target gene, increased 5-fold in the presence of 2-DG.
ChIP assays also were performed over 20 Kb spanning the BDNF NRSE to detect deacetylated histone H3K9. In these experiments, hippocampi from rats administered 2-DG or saline for 2 weeks were subjected to CHIP with anti-H3K9-acetyl (obtained from BD-Pharmigen) or sham antibody and primers flanking BDNF NRSE or sequence 2, 5 or 10 Kb up- or downstream from the BDNF NRSE element.
Alternatively, when chromatin from the above experiments was precipitated with anti-NRSF or sham antibody and primers flanking the BDNF NRSE or actin promoter, specific binding was found at the NSRE element and not associated with the actin promoter.
(§2) The above results predicted that CtBP would be present at the BDNF NRSF binding site in rat hippocampi and that occupancy at this site should be augmented in the presence of 2-DG. To test this prediction, ChIP assays were performed using anti-CtBP antibody on chromatin isolated from 2DG-treated rats as above. Hippocampi from rats administered 2-DG or saline for 2 weeks were subjected to ChIP with a cocktail of anti-CtBP1 and anti-CtBP2 antibody or sham antibody and primers flanking the BDNF NRSE or actin promoter. […] CtBP was not detected at the actin promoter without regard to the glycolytic state of the animal, as expected for a gene not under NRSF regulatory control.

[1] = assay type: in vivo; conditions: rats
Method: Dosage amount and interval of administration of compounds of the present invention can be adjusted individually to reduce seizure frequency, duration or intensity. For example, doses of 250 mg/kg 2-DG or less to higher as tolerated can be used to reduce seizure frequency and minimize toxicity. Doses of as much as 2000 mg/kg 2-DG are well tolerated in rats. […] A practitioner skilled in the art can adjust dosage in the range up to 500-600 mg/kg 2-DG and the timing of administration to produce prolonged anticonvulsant and antiepileptic effects. Efficacious dosage amounts can be adjusted to about 14 mg/kg 2-DG in children and 40 mg/kg 2-DG in adults, using therapeutic efficacy measurements (e.g., reduction in frequency or severity of seizures) as a criterion for establishing effective dosage levels.

TrkB = experiment: QRT-PCR of hippocampal tissue from kindled rats, TrkB; assay type: in vivo, rat
Source text: (§3) Values plotted are BDNF or TrkB expression over Actin using rat hippocampal cDNA from an untreated rat for a standard curve. Specifically, mRNA was extracted from hippocampus tissue from rats treated with 2-DG or untreated control rats subjected to kindling stimulation to mimic epilepsy. […] The levels of actin mRNA were not affected by 2-DG treatment. Importantly, the differences in expression of BDNF or TrkB in the absence or presence of 2DG were present after 5 ADs in association with a large difference in AD threshold between 2DG-treated and control rats (FIG. 3 lanes 5 versus 6 and 7 versus 8).

[2] = system: NRSF target genes Sodium Type II (NaV1.2), BDNF, CHRM4; experiment: QRT-PCR of chromosomal NRSF target genes in JTC-19 cells; assay type: cell-based, rat; conditions: 1 mM 2-DG for 24 hrs
Source text: FIG. 5 are graphs showing the results of quantitative reverse-transcriptase-PCR experiments, wherein NaV1.2 is sodium type II (NaV1.2); BDNF is Brain Derived Neurotrophic Factor (BDNF) and CHRM4 is muscarinic acetylcholine receptor type 4 (CHRM4), all genes repressed by NRSE/NRSF, and actin (not an NRSF target).
Firefly luciferase measurements were normalized to co-transfected pRL-TK and expressed as fold repression (gal4 DBD/gal4-NRSF). Values are the average of at least three experiments performed in triplicate. Error bars indicate standard errors. […] In these experiments, cells were grown in the presence or absence of 1 mM 2-DG for 24 hrs, harvested and RNA subjected to QRT-PCR with primers to the NRSF target genes Sodium Type II (NaV1.2), Brain Derived Neurotrophic Factor (BDNF) and Muscarinic Acetylcholine Receptor Type 4 (CHRM4) or actin (not an NRSF target). Rat hippocampal cDNA was used to generate a standard curve and values plotted are microliter equivalents of hippocampal cDNA.

actin = experiment: QRT-PCR of hippocampal tissue from kindled rats, actin; assay type: in vivo, rat; conditions: hippocampus, 2-DG treatment versus control
Source text: as §3

actin promoter = experiment: ChIP on hippocampi of rats administered 2-DG or saline, actin promoter; assay type: in vivo; conditions: rat hippocampi, without regard to the glycolytic state
Source text: as §1, §2

## O=CC[C@@H](O)[C@H](O)[C@H](O)CO [2-DG, 2-deoxy-D-glucose]
BDNF NRSE; anti-H3K9-dimethyl antibody, rat hippocampi
  H3K9 methylation status at the BDNF NRSE: robust increase
BDNF NRSE; anti-NRSF antibody, rat hippocampi
  NRSF binding to the BDNF NRSE: not affected
BDNF NRSE; drug treatment, rat hippocampus
  associated histone acetylation levels for BDNF DNA: lowered
BDNF NRSE; rats administered 2-DG or saline for 2 weeks, anti-CtBP1 and anti-CtBP2 cocktail
  CtBP occupancy at the BDNF NRSE: significantly increased
BDNF NRSE; rats administered 2-DG or saline for 2 weeks, only amplicon over 20 Kb to change
  H3K9 acetylation at the NRSE element compared to controls: marked reduction
[1]
  well tolerated dose: ≤ 2000 mg/kg
TrkB; QRT-PCR, expression over actin, FIG. 3 lanes 3 versus 4
  hippocampal TrkB expression compared to control animals: significantly reduced
TrkB; after 5 ADs
  difference in expression of TrkB in absence or presence of 2DG: present
TrkB; rats that experienced 3 Class V seizures
  TrkB expression, 2DG-treated versus control rats: no difference in expression
[2]
  expression of chromosomal NRSF target genes: repressed
actin
  levels of actin mRNA: not affected
Actin promoter
  CtBP at the actin promoter: not detected

Reference: patent US7557085B2, “Metabolic-based methods for modulating gene expression” (Wisconsin Alumni Research Foundation, priority 2005, dated 2009)
